Earlier results in patent publication US20060100282A1, “Novel diaminopropane-based metal chelators as antiviral agents” (Bioflexis, LLC, priority 2004, published 2006).

What was measured:
HIV-1 integrase (IN) [1] = target: T1, HIV-1 integrase (IN) (Human immunodeficiency virus type 1 group M subtype B, UniProt P12497); conditions: result in words
T1 construct: HIV-1 recombinant IN (HIV-1NL 4-3 Integrase, NIH AIDS Reagent program Catalog No: 2959); purchased NIH AIDS Reagent program 2959

HIV-1 integrase (IN) [2] = target: T1, HIV-1 integrase (IN); conditions: result in words; remark: listed apart in the source

SMILES | inhibition of 3′ processing (HIV-1 integrase (IN) [1]) | inhibition of strand transfer reaction (HIV-1 integrase (IN) [2])
O=C(O)C(=O)CC(=O)c1cc(OCc2ccccc2)cc(OCc2ccccc2)c1 [Inhibitor 6] | do not inhibit 3′ processing | inhibit strand transfer reaction
O=C(O)C(=O)CC(=O)c1cccn1Cc1ccc(F)cc1 [Inhibitor 8] | do not inhibit 3′ processing | inhibit strand transfer reaction
